Laboratory results from ChEMBL document CHEMBL1140438, “Ligand recognition by RAR and RXR receptors: binding and selectivity” (J Med Chem, 2005).

Tests used:
[1] = target: T1, Retinoic acid receptor gamma (Homo sapiens, UniProt P13631)
T1 sequence (P13631 whole entry): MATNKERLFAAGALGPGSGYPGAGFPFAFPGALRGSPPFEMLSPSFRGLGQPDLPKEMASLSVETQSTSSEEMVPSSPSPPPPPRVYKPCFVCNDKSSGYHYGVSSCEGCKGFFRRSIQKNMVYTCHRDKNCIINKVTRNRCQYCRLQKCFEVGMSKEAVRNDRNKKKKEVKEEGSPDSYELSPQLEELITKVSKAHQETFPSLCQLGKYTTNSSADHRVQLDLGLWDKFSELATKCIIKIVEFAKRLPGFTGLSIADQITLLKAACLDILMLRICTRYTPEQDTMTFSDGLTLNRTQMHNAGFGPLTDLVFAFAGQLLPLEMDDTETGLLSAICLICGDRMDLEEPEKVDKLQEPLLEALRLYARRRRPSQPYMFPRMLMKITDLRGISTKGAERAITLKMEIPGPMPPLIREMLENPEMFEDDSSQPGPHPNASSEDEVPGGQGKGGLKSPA

[2] = target: T2, Retinoic acid receptor RXR-alpha (Homo sapiens, UniProt P19793); assay: Dissociation constant for Retinoid X receptor alpha
T2 sequence (P19793 whole entry): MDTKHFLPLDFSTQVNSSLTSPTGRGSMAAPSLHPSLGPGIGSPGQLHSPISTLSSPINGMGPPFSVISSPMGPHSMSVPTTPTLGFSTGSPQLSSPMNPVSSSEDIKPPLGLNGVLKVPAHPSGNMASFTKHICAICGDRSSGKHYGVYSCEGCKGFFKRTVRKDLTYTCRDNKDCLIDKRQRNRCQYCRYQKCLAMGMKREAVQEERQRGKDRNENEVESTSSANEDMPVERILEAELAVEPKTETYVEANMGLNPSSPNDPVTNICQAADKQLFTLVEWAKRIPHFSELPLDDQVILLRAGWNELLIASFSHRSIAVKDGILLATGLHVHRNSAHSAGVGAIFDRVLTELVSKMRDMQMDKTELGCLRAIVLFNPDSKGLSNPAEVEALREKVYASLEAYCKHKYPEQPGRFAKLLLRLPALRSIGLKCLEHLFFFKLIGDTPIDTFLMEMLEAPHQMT

[3] = target: T1, Retinoic acid receptor gamma; assay: Dissociation constant for Retinoic acid receptor gamma; Not an active agonist; format: functional

| Kd [1] | Kd [2] | Kd [3] | Structure (SMILES) |
| --- | --- | --- | --- |
| 645 nM | 32 nM | – | C/C(=C\c1ccc(C(=O)O)cc1)c1cc2c(cc1C)C(C)(C)CCC2(C)C |
| – | – | Not Active | Cc1cc2c(cc1-c1cc(/C=C3\SC(=O)NC3=O)ccc1OC(F)(F)F)C(C(C)C)=CCC2(C)C |
